Measured values: paper PMC11887451, “Leveraging Immunogenic Cell Death to Enhance the Immune Response against Malignant Pleural Mesothelioma Tumors” (Journal of the American Chemical Society, 2025)
Entries after “also recorded” stand apart in the source; their conditions may differ.

Columns and labels:
[1] = test system: murine malignant mesothelioma cell line AB12; assay: MTT cytotoxicity assay, 72 h, AB12; format: cell-based, mouse; conditions: exposure time 72 h
Description: (§1) Human malignant mesothelioma cancer cell lines JU77 and LO68 were obtained from Cell Bank Australia (Children's Medical Research Institute, Westmead, Australia). Mouse malignant mesothelioma cancer cell line AB12, human nonmalignant mesothelioma cancer cell line Met5A (mesothelial cells), mouse macrophage cell line J774 and human monocytic cell line THP-1 were obtained from American Type Culture Collection (ATCC) (Rockville, MD, USA). Human malignant mesothelioma cell lines VMC23 (epithelial), Meso82 (sarcomatous), Meso92 (biphasic), were kindly provided by Prof. Walter Berger (Medical University of Vienna). All cells except for J774 were cultured in RPMI and J774 cells were cultured in DMEM. Both types of media were supplemented with 10% FBS and 1% penicillin-streptomycin (10,000 U/mL). Cells were grown in tissue culture flasks (75 cm2 and 25 cm2, SPL Life Sciences Co., Ltd., Korea). All cell lines were grown at 37 °C in a humidified atmosphere of 95% air and 5% CO 2 and passaged when they reached 80–90% confluency. All Au stock solutions were prepared in 1% DMSO in the respected medium, ensuring that cell viability was not inhibited.
(§2) The cytotoxicity of compounds was determined using an MTT colorimetric test. The cells were harvested from culture flasks by trypsinization and seeded into Cellstar 96 -well microculture plates (Greiner Bio -One) at the seeding density of 6000 cells per well (6 × 10^4 cells/mL). After
(§3) the cells were allowed to resume exponential growth for 16 h, they were exposed to drugs at
(§4) different concentrations in media for 72 h. The drugs were diluted in a complete medium at the desired concentration added to each well (100 μL) and serially diluted in other wells. After exposure for 72 h, the media was replaced with MTT in media (5 mg/mL, 100 μL/well) and

[2] = test system: human malignant mesothelioma cell line JU77; assay: MTT cytotoxicity assay, 72 h, JU77; format: cell-based; conditions: exposure time 72 h
[3] = test system: human malignant mesothelioma cell line LO68; assay: MTT cytotoxicity assay, 72 h, LO68; format: cell-based; conditions: exposure time 72 h
[4] = test system: patient-derived VMC23 cell line (epithelioid MPM); assay: MTT cytotoxicity assay, 72 h, VMC23; format: cell-based, human; conditions: exposure time 72 h
Description: as §1, §2, §3, §4

[5] = test system: patient-derived Meso84 cell line (sarcomatoid MPM); assay: MTT cytotoxicity assay, 72 h, Meso84; format: cell-based, human; conditions: exposure time 72 h
[6] = test system: patient-derived Meso92 cell line (biphasic MPM); assay: MTT cytotoxicity assay, 72 h, Meso92; format: cell-based, human; conditions: exposure time 72 h
Description: Cell lines and culture conditions
(§5) Mouse malignant mesothelioma cancer cell line AB12, human nonmalignant mesothelioma cancer cell line Met5A (mesothelial cells), mouse macrophage cell line J774 and human monocytic cell line THP-1 were obtained from American Type Culture Collection (ATCC) (Rockville, MD, USA). Human malignant mesothelioma cell lines VMC23 (epithelial), Meso82 (sarcomatous), Meso92 (biphasic), were kindly provided by Prof. Walter Berger (Medical University of Vienna). All cells except for J774 were cultured in RPMI and J774 cells were cultured in DMEM. Both types of media were supplemented with 10% FBS and 1% penicillin-streptomycin (10,000 U/mL). Cells were grown in tissue culture flasks (75 cm2 and 25 cm2, SPL Life Sciences Co., Ltd., Korea). All cell lines were grown at 37 °C in a humidified atmosphere of 95% air and 5% CO 2 and passaged when they reached 80–90% confluency. All Au stock solutions were prepared in 1% DMSO in the respected medium, ensuring that cell viability was not inhibited. The Au concentration in the stock solutions was confirmed through inductively coupled plasma optical emission spectrometry. The stock solution of pemetrexed (10 mM) was prepared in Milli -Q water.
Inhibition of c ell viability assay
as §2, §3, §4

[7] = test system: human nonmalignant mesothelioma cell line Met5A; assay: MTT cytotoxicity assay, 72 h, Met5A; format: cell-based; conditions: exposure time 72 h
Description: Cell lines and culture conditions
as §5
Inhibition of c ell viability assay
as §2, §3, §4

[8] = test system: M0-differentiated THP-1 cells; assay: MTT-based viability assay on M0-differentiated THP-1 cells, 72 h; format: cell-based, human; conditions: 72-h exposure, compared with AB12 cells
Description: incubated for an additional 50 min. Subsequently, the medium was aspirated, and the purple formazan crystals formed in viable cells were dissolved in DMSO (100 μL/well). Optical densities were measured at 570 nm using a BioTek Synergy H1 microplate and MultiskanTM SkyHigh plate readers. The quantity of viable cells was expressed in terms of treated/control (T/C) values in comparison to untreated control cells, and 50% inhibitory concentrations (IC 50) were calculated from concentration-effect curves by interpolation. An evaluation was based on means from at least three independent experiments, each comprising three replicat es per […]
For macrophage analyses, the acute monocytic leukemia -derived THP-1 cell line (ATCC) was used as a model. 1 × 104 THP-1 cells were seeded per well in 96-well plates in RPMI-1640 with 10% FCS and treated for 24 h with 75 nM phorbol 12-myristate 13-acetate (PMA, Sigma-Aldrich) to induce M0 macrophage differentiation. After the differentiation period, PMA was replaced by fresh culture medium to recover for 2h. Afterwards increasing concentrations of 1G, 5A, 5B and 5G were added for a 72-h continuous drug exposure assay. In parallel, the murine mesothelioma cell line AB12 was seeded into 96 -well plates at 2.5 × 10^3 cells/well and were allowed to attach for 24 h. Gold compounds were added to the cells as described for the THP-1 model above. After the incubation period of 72 h, cell viability was determined by an MTT-based assay (EU4U, Biomedica) following the instructions of the manufacturer. DMSO had not impact on the cell viability at the concentrations used. […]

[9] = test system: AB12 cells phagocytosed by J774 macrophages; assay: Phagocytosis assay, flow cytometry; format: cell-based, mouse; conditions: AB12 treated 100 min at 5 × IC50 (72 h), 16 h with J774 macrophages
Procedure, shortened: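 AB12 cells labelled with CellTracker Red CMTPX and J774 macrophages with CellTracker Green CMFDA; AB12 cells drug-treated 100 min, then co-incubated with macrophages 16 h at 37°C. Phagocytosis % by flow cytometry as double-positive macrophages over total macrophages.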

[10] = test system: panel of seven MPM cell lines; assay: MTT cytotoxicity assay, 72 h, whole panel (summary ranges); format: cell-based; conditions: read-out: cytotoxicity range across the cell line panel
Description: Human malignant mesothelioma cancer cell lines JU77 and LO68 were obtained from Cell Bank Australia (Children's Medical Research Institute, Westmead, Australia). Mouse malignant mesothelioma cancer cell line AB12, human nonmalignant mesothelioma cancer cell line Met5A (mesothelial cells), mouse macrophage cell line J774 and human monocytic cell line THP-1 were obtained from American Type Culture Collection (ATCC) (Rockville, MD, USA). Human malignant mesothelioma cell lines VMC23 (epithelial), Meso82 (sarcomatous), Meso92 (biphasic), were kindly provided by Prof. Walter Berger (Medical University of Vienna). All cells except for J774 were cultured in RPMI and J774 cells were cultured in DMEM. Both types of media were supplemented with 10% FBS and 1% penicillin-streptomycin (10,000 U/mL). Cells were grown in tissue culture flasks (75 cm2 and 25 cm2, SPL Life Sciences Co., Ltd., Korea). All cell lines were grown at 37 °C in a humidified atmosphere of 95% air and 5% CO 2 and passaged when they reached 80–90% confluency. All Au stock solutions were prepared in 1% DMSO in the respected medium, ensuring that cell viability was not inhibited. […]
The cytotoxicity of compounds was determined using an MTT colorimetric test. […]
incubated for an additional 50 min. […] Optical densities were measured at 570 nm using a BioTek Synergy H1 microplate and MultiskanTM SkyHigh plate readers. […]

F[P-](F)(F)(F)(F)F.c1cc[c]2c(c1)Nc1cccc[n+]1[Au-]21[S]C(=[N+]2CCCCCC2)[S]1 (stereo not drawn) [5G]
IC50 [1]: 0.33 ± 0.09 µM | IC50 [2]: 0.22 ± 0.04 µM | IC50 [3]: 0.43 ± 0.05 µM | IC50 [4]: 0.73 ± 0.16 µM | IC50 [5]: 0.3 ± 0.07 µM | IC50 [6]: 0.35 ± 0.04 µM | IC50 [7]: 0.25 ± 0.05 µM | sensitivity of THP-1-derived macrophages [8]: highly sensitive; also recorded: increased sensitivity in comparison to the malignant mesothelioma cells | phagocytosis / ICD response (in words) [9]: substantial phagocytosis

Nc1nc2[nH]cc(CCc3ccc(C(=O)N[C@@H](CCC(=O)O)C(=O)O)cc3)c2c(=O)[nH]1 [Pemetrexed, pemetrexed, reference compound]
IC50 ([1]; Mus musculus): 0.023 ± 0.007 µM | IC50 ([2]; Homo sapiens): 0.073 ± 0.014 µM | IC50 ([3]; Homo sapiens): 0.094 ± 0.028 µM | IC50 ([4]; Homo sapiens): 0.17 ± 0.04 µM | IC50 ([5]; Homo sapiens): 0.027 ± 0.002 µM | IC50 ([6]; Homo sapiens): 0.14 ± 0.04 µM | IC50 ([7]; Homo sapiens, MeT-5A): 0.3 ± 0.1 µM | IC50 [10]: 0.023 to 0.3 µM | phagocytosis / ICD response (in words) [9]: failed to initiate any ICD response
